From US20230167088A1, “1-PYRAZINYLPYRAZOLYL-3-OXYALKYL ACIDS AND THEIR DERIVATIVES, AND THEIR USE FOR CONTROL OF UNDESIRED PLANT GROWTH” (BAYER AKTIENGESELLSCHAFT, priority 2020, published 2023)

What was measured:
POAAN [1] = assay: Herbicidal post-emergence action 1b (twin sowing, 1280 g/ha); assay type: in vivo, Poa annua; conditions: dosage 1280 g/ha, visual rating about 3 weeks after treatment
Outline: (§1)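 Greenhouse weed pairs (mono- with dicotyledonous) were treated 2–3 weeks after sowing, at one leaf, using an aqueous spray at 600 L/ha carrying 0.5% additive. Percent activity, judged by eye against untreated plants, was recorded roughly 3 weeks post-application.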

DIGSA [2] = assay: as above; assay type: in vivo, Digitaria sanguinalis; conditions: dosage 1280 g/ha, visual rating about 3 weeks after treatment
Description: (§2) [table] b) Seeds of mono- and dicotyledonous weed plants are placed in plastic pots in sandy loam soil (twin sowing with one species each of mono- or dicotyledonous weed plants per pot), covered with soil and cultivated in a greenhouse under controlled growth conditions. 2 to 3 weeks after sowing, the test plants are treated at the one-leaf stage. The compounds of the invention, formulated in the form of wettable powders (WP) or as emulsion concentrates (EC), are applied to the green parts of the plants as aqueous suspension or emulsion with addition of 0.5% additive at a water application rate equivalent to 600 litres per hectare. After the test plants have been kept in the greenhouse under optimum growth conditions for about 3 weeks, the activity of the preparations is rated visually in comparison to untreated controls. For example, 100% activity=the plants have died, 0% activity=like control plants. Tables A16 to A21 below show the effects of selected compounds of the general formula (I) according to Tables 1 and 2 on various harmful plants and at an application rate corresponding to 1280 g/ha, which were obtained by the experimental procedure mentioned above.

ECHCG [3] = assay: Herbicidal pre-emergence action 2b (doubly sown, 1280 g/ha); assay type: in vivo, Echinochloa crus-galli; conditions: doubly sown pots, dosage 1280 g/ha, visual scoring after about 3 weeks
Outline: (§3)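 Compounds were sprayed pre-emergence as wettable powders or emulsion concentrates onto soil covering freshly sown weed seeds, two species per pot. Percent activity was judged by eye roughly 3 weeks later versus untreated plants.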

ABUTH = assay: Herbicidal post-emergence action 1b (twin sowing, 1280 g/ha); assay type: in vivo, Abutilon theophrasti; conditions: dosage 1280 g/ha, visual rating about 3 weeks after treatment
Description: as §2

AMARE [4] = assay: Herbicidal pre-emergence action 2b (doubly sown, 1280 g/ha); assay type: in vivo, Amaranthus retroflexus; conditions: doubly sown pots, dosage 1280 g/ha, visual scoring after about 3 weeks
Outline: as §3

MATIN [5] = assay: as above; assay type: in vivo, Matricaria inodora; conditions: doubly sown pots, dosage 1280 g/ha, visual scoring after about 3 weeks
Outline: as §3

STEME [6] = assay: Herbicidal post-emergence action 1b (twin sowing, 1280 g/ha); assay type: in vivo, Stellaria media; conditions: dosage 1280 g/ha, visual rating about 3 weeks after treatment
Outline: as §1

POAAN [7] = assay: Herbicidal pre-emergence action 2b (doubly sown, 1280 g/ha); assay type: in vivo, Poa annua; conditions: doubly sown pots, dosage 1280 g/ha, visual scoring after about 3 weeks
Outline: as §3

MATIN [8] = assay: Herbicidal post-emergence action 1b (twin sowing, 1280 g/ha); assay type: in vivo, Matricaria inodora; conditions: dosage 1280 g/ha, visual rating about 3 weeks after treatment
Outline: as §1

STEME [9] = assay: Herbicidal pre-emergence action 2b (doubly sown, 1280 g/ha); assay type: in vivo, Stellaria media; conditions: doubly sown pots, dosage 1280 g/ha, visual scoring after about 3 weeks
Outline: as §3

ECHCG [10] = assay: Herbicidal post-emergence action 1b (twin sowing, 1280 g/ha); assay type: in vivo, Echinochloa crus-galli; conditions: dosage 1280 g/ha, visual rating about 3 weeks after treatment
Description: as §2

DIGSA [11] = assay: Herbicidal pre-emergence action 2b (doubly sown, 1280 g/ha); assay type: in vivo, Digitaria sanguinalis; conditions: doubly sown pots, dosage 1280 g/ha, visual scoring after about 3 weeks
Outline: as §3

AMARE [12] = assay: Herbicidal pre-emergence action 2a (greenhouse pots, visual scoring); assay type: in vivo, Amaranthus retroflexus; conditions: dosage 320 g/ha, visual scoring after about 3 weeks vs untreated controls
Outline: (§4)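 Pre-emergence greenhouse pot test: WP or EC formulations sprayed onto covering soil over sown seeds at 600 l/ha water with 0.5% additive, at rates corresponding to 320 g/ha and/or 80 g/ha. Visual % activity versus untreated controls after about 3 weeks (100% = plants dead).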

VERPE [13] = assay: Herbicidal post-emergence action 1a (greenhouse pots, visual rating); assay type: in vivo, Veronica persica; conditions: dosage 80 g/ha, visual rating about 3 weeks after treatment
Outline: (§5)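 Visual scoring versus untreated plants (100% = plants dead, 0% = as control) followed roughly 3 weeks in the greenhouse after treatment. Plants grown in sandy loam pots had been sprayed on green parts at the one-leaf stage, 2–3 weeks post-sowing, with aqueous WP/EC preparations containing 0.5% additive, 600 l/ha, at 320 and/or 80 g/ha.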

SETVI = assay: Herbicidal pre-emergence action 2a (greenhouse pots, visual scoring); assay type: in vivo, Setaria viridis; conditions: dosage 320 g/ha, visual scoring after about 3 weeks vs untreated controls
Outline: as §4

LOLRI = assay: as above; assay type: in vivo, Lolium rigidum; conditions: dosage 320 g/ha, visual scoring after about 3 weeks vs untreated controls
Outline: as §4

VIOTR [14] = assay: Herbicidal post-emergence action 1a (greenhouse pots, visual rating); assay type: in vivo, Viola tricolor; conditions: dosage 80 g/ha, visual rating about 3 weeks after treatment
Outline: as §5

VIOTR [15] = assay: Herbicidal pre-emergence action 2a (greenhouse pots, visual scoring); assay type: in vivo, Viola tricolor; conditions: dosage 320 g/ha, visual scoring after about 3 weeks vs untreated controls
Outline: as §4

ALOMY [16] = assay: as above; assay type: in vivo, Alopecurus myosuroides; conditions: dosage 320 g/ha, visual scoring after about 3 weeks
Outline: as §4

ALOMY [17] = assay: Herbicidal post-emergence action 1a (greenhouse pots, visual rating); assay type: in vivo, Alopecurus myosuroides; conditions: Dosage 80 g/ha; rated visually about 3 weeks after treatment; 100% = plants have died, 0% = like control plants
Outline: as §5

MATIN [18] = assay: Herbicidal pre-emergence action 2a (greenhouse pots, visual scoring); assay type: in vivo, Matricaria inodora; conditions: dosage 320 g/ha, visual scoring after about 3 weeks vs untreated controls
Excerpt: [table] a) Seeds of monocotyledonous and dicotyledonous weed plants and crop plants are placed in plastic or organic plant pots and covered with soil. The compounds of the invention, formulated in the form of wettable powders (WP) or as emulsion concentrates (EC), are then applied onto the surface of the covering soil as aqueous suspension or emulsion with addition of 0.5% additive at a water application rate of 600 1/ha (converted). After the treatment, the pots are placed in a greenhouse and kept under good growth conditions for the trial plants. After about 3 weeks, the effect of the preparations is scored visually in comparison with untreated controls as percentages. For example, 100% activity=the plants have died, 0% activity=like control plants. Tables B1 to B15 below show the effects of selected compounds of the general formula (I) according to Tables 1 and 2 on various harmful plants and an application rate corresponding to 320 g/ha and/or 80 g/ha, which were obtained by the experimental procedure mentioned above.

VERPE [19] = assay: as above; assay type: in vivo, Veronica persica; conditions: dosage 320 g/ha, visual scoring after about 3 weeks vs untreated controls
Outline: as §4

Compound | Post-emergence action at 1280 g/ha against POAAN in % (POAAN [1]) [%] | Post-emergence action at 1280 g/ha against DIGSA in % (DIGSA [2]) [%] | Pre-emergence action at 1280 g/ha against ECHCG in % (ECHCG [3]) [%] | Post-emergence action at 1280 g/ha against ABUTH in % (ABUTH) [%] | Pre-emergence action at 1280 g/ha against AMARE in % (AMARE [4]) [%] | Pre-emergence action at 1280 g/ha against MATIN in % (MATIN [5]) [%] | Post-emergence action at 1280 g/ha against STEME in % (STEME [6]) [%] | Pre-emergence action at 1280 g/ha against POAAN in % (POAAN [7]) [%] | Post-emergence action at 1280 g/ha against MATIN in % (MATIN [8]) [%] | Pre-emergence action at 1280 g/ha against STEME in % (STEME [9]) [%] | Post-emergence action at 1280 g/ha against ECHCG in % (ECHCG [10]) [%] | Pre-emergence action at 1280 g/ha against DIGSA in % (DIGSA [11]) [%] | other results
O=C(O)COc1nn(-c2cnccn2)c(-c2ccc(F)nc2)c1Br [Example I-49, {[4-bromo-5-(6-fluoropyridin-3-yl)-1-(pyrazin-2-yl)-1H-pyrazol-3-yl]oxy}acetic acid] | 100 | 90 | 100 | 100 | 100 | 100 | 90 | 100 | 100 | 100 | 100 | 100 | –
N#CCOC(=O)COc1nn(-c2cnccn2)c(-c2ccc(F)nc2)c1Br [Example I-65] | 100 | 100 | 100 | 90 | 100 | 100 | 90 | 100 | 100 | 100 | 90 | 100 | Pre-emergence action against AMARE in % (AMARE [12]): 100%; Post-emergence action against VERPE in % (VERPE [13]): 80%; Pre-emergence action against SETVI in % (SETVI): 100%; Pre-emergence action against LOLRI in % (LOLRI): 80%; Post-emergence action against VIOTR in % (VIOTR [14]): 80%; Pre-emergence action against VIOTR in % (VIOTR [15]): 90%; Pre-emergence action against ALOMY in % (ALOMY [16]): 90%; Post-emergence action against ALOMY in % (ALOMY [17]): 80%; Pre-emergence action against MATIN in % (MATIN [18]): 90%; Pre-emergence action against VERPE in % (VERPE [19]): 90%
O=C(COc1nn(-c2cnccn2)c(-c2ccc(F)nc2)c1Br)OCc1ccccn1 [Example I-70] | – | 100 | 100 | 100 | 100 | 100 | 100 | 100 | 100 | 100 | 90 | 100 | –
